# Legend:
# [1] = molecular target: T1, σ1^spCFP/YFP construct expressed in HEK-293 cells (Homo sapiens, UniProt Q99720); assay: Single-cell real-time intramolecular FRET (iFRET) of the σ1 receptor FRET sensor; assay type: cell-based; settings: for change in the FRET signal of the σ1^spCFP/YFP: 100 μM, single HEK-293 cell, FIG. 3
# T1 construct: PTHR (PTH1R) signal peptide (N); expressed in transfected cells; host or cells: HEK-293 (stably transfected, G418 selected)
# Experimental: In the single cell real time intramolecular-FRET approach both donor (i.e. CFP) and acceptor (i.e. YFP) are located in the same molecule, as designed for the σ1^CFP/YFP and the σ1^spCFP/YFP constructs (FIG. 1A). In brief, HEK cells permanently expressing the corresponding σ1 receptor FRET sensor were seeded in poly-D-Lysine coated coverslips and allow growing overnight. Then, the coverslips with transfected cells were mounted in an Attofluor holder and placed on an inverted Axio Observer microscope (Zeiss, Jena, Germany) equipped with a 63× oil immersion objective and a dual-emission photometry system (Till Photonics, Gräfelfing, Germany). The extracellular buffer was Hank's Balanced Salt Solution (HBSS), containing (in mM): 137 NaCl, 0.34 Na2HPO4, […], 0.44 KH2PO4, 0.5 MgCl2, 0.4 Mg2SO4, 1.26 CaCl2, 10 HEPES, 2 D-glucose and 1 ascorbic acid (pH 7.4 with NaOH).
# A Polychrome V (Till Photonics) was used as the light source. The sample was illuminated with excitation light at 436±10 nm (beam splitter dichroic long-pass; DCLP 460 nm). Excitation time was 10 ms at 10 Hz, in order to limit photobleaching. Emission light intensities were determined at 535±15 and 480±20 nm (DCLP 505 nm). No corrections for spillover between channels or direct YFP excitation were made.
# Single cells were selected for recording based on their σ1 expression as judged by its fluorescence. […] The ligands were applied using a pressure-driven, computer-controlled perfusion system (Octaflow; ALA Scientific Instruments, Westbury, N.Y., USA) and experiments were carried out at room temperature. Finally, a Digidata 1440 analog/digital converter (Molecular Devices, Sunnyvale, Calif., USA) was used for interfacing the photometry system and the perfusion system with a personal computer, which was used to control these systems and to record data. Finally, pCLAMP (Molecular Devices) and GraphPad Prism (GraphPad Software Inc., San Diego, Calif., USA) software were used for data collection and analysis.
# [2] = system: σ1^YFP and CFP; assay: Control experiments with coexpression of σ1^YFP and CFP; assay type: cell-based, human; settings: data not shown
# Experimental: Next, we investigated whether σ1 challenge produced any rearrangements of the N- and C-terminal domains (i.e. conformational change) of the σ1 receptor by monitoring real time changes in the FRET efficiency. To this end, changes in the emission intensities of YFP (535 nm, yellow), CFP (480 nm, cyan) and the ratio F*535/F*480 (black) were recorded simultaneously from single cells after rapid superfusion with σ1 receptor ligands.
# [3] = molecular target: σ1 site (Homo sapiens, UniProt Q99720); settings: cited from earlier work
# [4] = molecular target: sigma-2 (σ2) site (Homo sapiens, UniProt Q5BJF2); settings: cited from earlier work
# Sequence of sigma-2 (σ2) site (Q5BJF2 whole entry): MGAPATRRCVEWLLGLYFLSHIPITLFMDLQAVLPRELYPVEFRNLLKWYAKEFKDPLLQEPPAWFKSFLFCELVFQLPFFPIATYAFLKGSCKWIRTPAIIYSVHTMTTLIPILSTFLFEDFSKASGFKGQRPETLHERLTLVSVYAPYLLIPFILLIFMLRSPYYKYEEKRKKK
smiles,measurement,setting,value
"CC(C)=CCN1CCC2(C)c3cc(O)ccc3CC1C2C (single isomer, unassigned; (+)) [(+)-Pentazocine]",change in the FRET signal of the σ1^spCFP/YFP,[1],decrease
CCCN1CCC[C@H](c2cccc(O)c2)C1 [(+)-3-PPP],change in the FRET signal of the σ1^spCFP/YFP,[1],decrease
COc1ccc2c(c1)[C@]13CCCC[C@@H]1[C@H](C2)N(C)CC3 [Dextromethorphan],change in the FRET signal of the σ1^spCFP/YFP,[1],decrease
O=C(CCCN1CCC(O)(c2ccc(Cl)cc2)CC1)c1ccc(F)cc1 [Haloperidol],FRET in the presence of ligand,[2],no FRET
CCCN(CCC)CCc1ccc(OC)c(OCCc2ccccc2)c1 [NE-100],change in the FRET signal of the σ1^spCFP/YFP,[1],increase
O=C(OCCN1CCOCC1)C1(c2ccccc2)CCCCC1 [PRE-048],delay before FRET change,[1]; 100 μM ligand,~5 s
same,time constant τ of monoexponential time course of FRET change,"[1]; 100 μM ligand, n=3",10.3 ± 0.3 s
same,change in the F*535/F*480 ratio,"[1]; 100 μM ligand, rapid superfusion, single HEK-293 cells, FIG. 2D-E",rapid decrease
same,change in the FRET signal of the σ1^spCFP/YFP,[1],decrease
same,FRET in the presence of ligand,[2],no FRET
"C=CCN1CC[C@]2(C)c3cc(O)ccc3C[C@H]1[C@H]2C [SKF-10,047]",affinity for the σ1 site,[3],nanomolar affinity
same,affinity for the sigma-2 (σ2) site,[4],micromolar affinity
